Literature values as cited in patent US12390432B2, “Methods for treating allan-herndon-dudley syndrome” (PriZm, LLC, priority 2022, dated 2025).

Settings: literature report, Groeneweg et al. Lancet Diabetes Endocrinol. 2019; cited from earlier work

O=C(O)Cc1cc(I)c(Oc2ccc(O)c(I)c2)c(I)c1 [TRIAC, triiodothyroacetic acid]
thyroxine (T4) serum levels: significantly reduce
